Literature values in US20230126271A1, “DEGRADER-ANTIBODY CONJUGATES AND METHODS OF USING SAME” (Anglex, Inc., priority 2020, published 2023).

Columns and labels:
[1] = in vivo
[2] = in vivo; remark: listed apart in the source

SMILES	toxicity in the clinic [1]	patients who experienced heart attacks while being treated [2]
CN(C)CC#Cc1ccc(OCCCc2sc(N3CCc4cccc(C(=O)Nc5nc6ccccc6s5)c4C3)nc2C(=O)O)c(F)c1 [A115463]	on-target and dose-limiting thrombocytopenia	–
CC1(C)CCC(c2ccc(Cl)cc2)=C(CN2CCN(c3ccc(C(=O)NS(=O)(=O)c4ccc(N[C@H](CCN5CCOCC5)CSc5ccccc5)c(S(=O)(=O)C(F)(F)F)c4)cc3)CC2)C1 [ABT 263]	on-target and dose-limiting thrombocytopenia	–
COc1ccc(/C=C\c2cc(OC)c(OC)c(OC)c2)cc1OP(=O)(O)O [CA4P, Combretastatin]	–	seven
